Laboratory results from publication PMC9393241, “Design, Synthesis, and Activity Assays of Cyclin-Dependent Kinase 1 Inhibitors With Flavone Scaffolds” (Frontiers in Chemistry, 2022).

Tests used:
CDK1/cyclin B1 = target: T1, CDK1/cyclin B1 (Homo sapiens, UniProt P06493); assay: In vitro anti-CDK1/cyclin B1 kinase assay (Kinase-Glo luminescence); type: biochemical; conditions: for Selectivity: CDK1 compared with CDK4 (CDK4 IC50 / CDK1 IC50); for inhibition at 20 µM: test compounds at 20 μM, read-out: Inhibition rates (%) CDK1
T1 construct: purchased
Experimental: (§1) In vitro anti-CDK1/cyclin B1 and CDK4/cyclin D3 assays were performed as described by the manufacturer. All test compounds and controls were dissolved in dimethyl sulfoxide (DMSO) to prepare 50 μM stock solutions. The stock solutions were diluted by double-distilled water and buffer to 40, 30, 20, and 10 μM working concentrations and stored at −20°C. Buffer, ATP, CDK substrate […], and distilled water were mixed, and then 25 μl of the mixture was added to a 96-well plate. Five microliters of 20 μM test compounds were sequentially added. CDK1/cyclin B1 was diluted to 1 ng/μl, and CDK4/cyclin D3 was diluted to 10 ng/μl using a buffer. Twenty microliters of the kinase solutions were incubated with the test compounds at 30°C for 45 min for CDK1/cyclin B1 and for 60 min for CDK4/cyclin D3. Finally, 50 μl of Kinase-Glo Max reagent was added to each well. The 96-well plate was covered with aluminum foil and incubated at room temperature for 15 min. Luminescence of the test compounds was measured with a microplate reader.

CDK4/cyclin D3 = target: T2, CDK4/cyclin D3 (Homo sapiens, UniProt P11802); assay: In vitro anti-CDK4/cyclin D3 kinase assay (Kinase-Glo luminescence); type: biochemical; conditions: for inhibition at 20 µM: test compounds at 20 μM, read-out: Inhibition rates (%) CDK4
T2 construct: purchased
Experimental: as §1

MCF-7 tumor cell = system: MCF-7 tumor cell; parameters: method as in Mou et al., 2021a; conditions: concentration of 50 μg/ml; ref Mou et al., 2021a; cited from earlier work
MCF-7 cells = assay: Cell growth inhibition assay (CCK-8), MCF-7; type: cell-based; conditions: Homo sapiens, MCF7, 24 h
Experimental: (§2) All test compounds and controls were dissolved in DMSO to prepare 250 μM stock solutions. The stock solutions were filtered through a […] and diluted into five concentrations (0.1–250 μM) with DMEM medium. MCF-7 and RAW264.7 cells were inoculated at a concentration of 5,000 cells/100 μl/well into a 96-well plate for 24 h at 37°C in a humidified atmosphere containing 5% CO2. After 24 h of culture, the primary medium was discarded and replaced with 100 μl of fresh DMEM medium containing different concentrations of test compounds in triplicate. After another 24 h of culture, the medium was replaced with 100 μl of fresh DMEM medium containing 10% (v/v) CCK-8 reagent in each well for 2 h at 37°C. The OD value was measured at a wavelength of 450 nm. Cell viability was determined using the following equation: Cell viability=(ODsample-ODnegative control/ODpositive control-ODnegative control)×100% where OD positive control is the absorbance at 450 nm obtained from untreated cells. OD negative control is the absorbance obtained from a blank well containing the cell culture medium and CCK-8 reagent. The IC50 values were calculated from the plot of activity vs. inhibitor concentration by using the GraphPad Prism 5 software ([Yu et al., 2020]).

RAW264.7 cells = assay: Cell growth inhibition assay (CCK-8), RAW264.7; type: cell-based; conditions: Mus musculus, 24 h
Experimental: as §2

CDK1/cyclin B kinase = target: CDK1/cyclin B kinase; parameters: method as in Mou et al., 2021a; conditions: ref Mou et al., 2021a; read-out: IC50 against CDK1/cyclin B kinase; cited from earlier work

T2 sequence (P11802 whole entry): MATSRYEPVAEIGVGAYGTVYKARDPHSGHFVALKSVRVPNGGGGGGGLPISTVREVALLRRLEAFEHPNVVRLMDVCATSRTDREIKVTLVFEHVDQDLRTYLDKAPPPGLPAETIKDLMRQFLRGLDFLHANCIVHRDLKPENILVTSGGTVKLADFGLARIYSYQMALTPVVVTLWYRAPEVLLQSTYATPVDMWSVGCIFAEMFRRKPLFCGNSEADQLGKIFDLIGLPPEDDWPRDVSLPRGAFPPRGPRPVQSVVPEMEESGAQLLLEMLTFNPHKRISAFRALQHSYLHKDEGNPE
T2 sequence (P30281 whole entry partner): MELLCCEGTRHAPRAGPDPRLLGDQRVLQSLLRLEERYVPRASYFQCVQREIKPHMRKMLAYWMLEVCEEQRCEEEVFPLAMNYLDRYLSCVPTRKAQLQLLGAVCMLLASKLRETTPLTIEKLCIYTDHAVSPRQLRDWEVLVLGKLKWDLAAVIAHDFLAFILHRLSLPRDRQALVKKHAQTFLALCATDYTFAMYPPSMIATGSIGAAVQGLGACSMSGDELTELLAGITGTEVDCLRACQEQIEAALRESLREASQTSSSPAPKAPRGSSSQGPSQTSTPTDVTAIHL
T1 sequence (P06493 whole entry): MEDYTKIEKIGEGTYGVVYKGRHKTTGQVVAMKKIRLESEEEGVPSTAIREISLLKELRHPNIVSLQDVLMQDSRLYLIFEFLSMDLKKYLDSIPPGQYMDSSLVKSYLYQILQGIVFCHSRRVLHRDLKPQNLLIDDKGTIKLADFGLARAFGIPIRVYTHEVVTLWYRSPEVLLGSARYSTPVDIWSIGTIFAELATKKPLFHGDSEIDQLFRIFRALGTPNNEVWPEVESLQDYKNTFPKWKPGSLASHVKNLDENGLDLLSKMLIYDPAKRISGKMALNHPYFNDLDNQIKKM
T1 sequence (P14635 whole entry partner): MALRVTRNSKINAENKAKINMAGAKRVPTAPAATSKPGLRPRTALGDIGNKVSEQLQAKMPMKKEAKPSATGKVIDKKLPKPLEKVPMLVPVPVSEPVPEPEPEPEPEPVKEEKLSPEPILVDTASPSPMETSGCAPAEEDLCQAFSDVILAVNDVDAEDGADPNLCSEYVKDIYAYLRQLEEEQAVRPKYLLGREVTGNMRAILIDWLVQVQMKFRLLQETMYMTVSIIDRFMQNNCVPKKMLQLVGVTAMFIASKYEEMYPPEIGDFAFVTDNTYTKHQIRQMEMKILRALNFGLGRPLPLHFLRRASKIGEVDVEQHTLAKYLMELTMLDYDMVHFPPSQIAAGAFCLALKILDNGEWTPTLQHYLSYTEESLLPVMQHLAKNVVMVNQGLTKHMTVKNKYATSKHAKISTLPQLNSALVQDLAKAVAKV

| SMILES | IC50 (CDK1/cyclin B1) | inhibition at 20 µM (CDK1/cyclin B1) | inhibition at 20 µM (CDK4/cyclin D3) | IC50 (MCF-7 cells) | melting point | Selectivity (CDK1/cyclin B1) | IC50 (CDK4/cyclin D3) | inhibition rate against MCF-7 tumor cell proliferation (MCF-7 tumor cell) | IC50 (RAW264.7 cells) | IC50 (CDK1/cyclin B kinase) |
| --- | --- | --- | --- | --- | --- | --- | --- | --- | --- | --- |
| CCn1cnc2c(Nc3cccc(Cl)c3)nc(NC3CCCCC3N)nc21 (stereo not drawn) [CGP74514 A, reference compound] | 10.9 ± 0.89 µM | 62.5 ± 0.05% | 48.52 ± 0.04% |  |  | 3.28 | 35.6 ± 1.02 µM | 96.7% |  |  |
| O=c1cc(-c2ccccc2)oc2c(CN3CCOCC3)c3c(c(O)c12)OCCCCO3 [Compound 2a, 12-Hydroxy-7-(morpholinomethyl)-9-phenyl-2,3,4,5-tetrahydro-[1,4]dioxocino[2,3-g]chromen-11-one] | 36.4 ± 1.12 µM | 33.05 ± 0.12% |  | 79.7 ± 1.81 µM | 213.8 to 214.3 °C |  |  | 96.7% | 2.54 ± 0.12 µM |  |
| O=c1cc(-c2ccccc2)oc2c(CN3CCOCC3)c(O)c(CN3CCOCC3)c(O)c12 [Compound 5c, 5,7-Dihydroxy-6,8-bis(morpholinomethyl)-2-phenyl-4H-chromen-4-one] | 39.6 ± 1.43 µM | 38.34 ± 0.08% | 8.15 ± 0.06% | 76.9 ± 1.47 µM | 199.2 to 199.6 °C | 12.85 | 508 ± 5.56 µM |  | 59.4 ± 1.23 µM |  |
| COc1ccc(-c2cc(=O)c3c(O)cc(OCCCCBr)cc3o2)cc1 [Compound 12d, 7-(4-Bromobutoxy)-5-hydroxy-2-(4-methoxyphenyl)-4H-chromen-4-one] | 51.4 ± 1.56 µM | 36.91 ± 0.08% | 3.47 ± 0.04% |  | 178.9 to 179.8 °C |  |  |  |  |  |
| C=C(C)C(=O)Oc1c(O)c(O)c2c(=O)cc(-c3ccccc3)oc2c1CN1CCN(C)CC1 [pro3o] |  |  |  |  |  |  |  |  |  | 1.26 µM |

Further lines, with some results ahead:

| IC50 (CDK1/cyclin B1) | inhibition at 20 µM (CDK1/cyclin B1) | inhibition at 20 µM (CDK4/cyclin D3) | IC50 (MCF-7 cells) | melting point | SMILES | Selectivity (CDK1/cyclin B1) | IC50 (CDK4/cyclin D3) | inhibition rate against MCF-7 tumor cell proliferation (MCF-7 tumor cell) | IC50 (RAW264.7 cells) | IC50 (CDK1/cyclin B kinase) |
| --- | --- | --- | --- | --- | --- | --- | --- | --- | --- | --- |
|  | 35.53 ± 0.08% | 2.73 ± 0.08% |  | 191.6 to 193.7 °C | COc1ccc(-c2cc(=O)c3c(O)c(CN(C)C)c(O)c(CN(C)C)c3o2)cc1 [Compound 10d, 6,8-Bis((dimethylamino)methyl)-5,7-dihydroxy-2-(4-methoxyphenyl)-4H-chromen-4-one] |  |  |  |  |  |
|  | 32.38 ± 0.11% | 6 ± 0.04% |  | 181.6 to 182.7 °C | COc1ccc(-c2cc(=O)c3c(O)cc(OCc4ccccc4)cc3o2)cc1 [Compound 12a, 7-(Benzyloxy)-5-hydroxy-2-(4-methoxyphenyl)-4H-chromen-4-one] |  |  |  |  |  |
| 43.6 ± 1.53 µM | 37.6 ± 0.12% | 1.43 ± 0.06% | 131 ± 2.35 µM | 175.2 to 175.7 °C | COc1ccc(-c2cc(=O)c3c(O)cc(OCCBr)cc3o2)cc1 [Compound 12c, 7-(2-Bromoethoxy)-5-hydroxy-2-(4-methoxyphenyl)-4H-chromen-4-one] |  |  |  | 68.4 ± 0.99 µM |  |
|  | 86.79 ± 0.04% | 89.71 ± 0.03% | 294 ± 3.13 µM |  | CN1CC[C@H](c2c(O)cc(O)c3c(=O)cc(-c4ccccc4Cl)oc23)[C@H](O)C1 [flavopiridol, reference compound] |  |  | 90.0% | 0.55 ± 0.05 µM |  |
